Source: patent US20030208035A1, “Antifungal and/or antibacterial peptides, preparation methods, compositions containing same and methods of treating mammals and/or plants” (priority 2000, published 2003)
Bridges are numbered along the chain shown (N, C = ends). Where no end group is shown, it is not given here.

Experiments:
Candida albicans = test: anti-Candida albicans growth inhibition test in liquid medium (96-well microplates); format: cell-based; conditions: fold relative to Ard1
Procedure: The anti-Candida albicans and anti-Aspergillus fumigatus activities of the different analogues were assessed using a growth inhibition test in liquid medium made in 96-well microplates. The activity of the purified peptides was tested for different dilutions of each peptide and was compared with those of heliomycin and Ard1 quantified under the same conditions.
The activity test was made directly on yeasts derived from a stock frozen at −80° C., in Sabouraud medium containing 15% glycerol. The density of the yeasts in the stock was adjusted to an optical density of 0.4 OD at 600 nm. After slow thawing at room temperature, the yeast suspension was reduced by dilution to an optic density of 1 mOD at 600 nm in Sabouraud medium, and 90 μl of this dilution were deposited in the wells of microtitration plates in the presence of 10 μl of sample to be tested. Control samples were systematically made in which 10 μl of sample were replaced by 10 μl of sterile water. Media sterility was controlled by incubating 10 μl sterile water in the presence of 90 μl of medium. The samples were incubated at 30° C. for 40 h under slight stirring and the antifungal activity was quantified by measuring optic density at 600 nm.

[1] = tested on: Candida albicans (IHEM 8060 strain); test: Candida albicans infected model, lethal in mice (disseminated candidiasis); format: in vivo; conditions: for mice alive on day 7 (out of 10): placebo 5 alive; for time of onset of the 1st death: placebo day 2.5; for effect on mouse survival relative to placebo treatment: 3.10^6 CFU, three i.v. injections, 10 mice of 15 g; for effect on mouse survival relative to placebo treatment / morbidity score up to post-infection day 5 / median mortality, post-infection day / delay of onset of the 1st death: 5 mg/kg; for morbidity score up to post-infection day 5: placebo 1/50; for median mortality, post-infection day: placebo day 4; for delay of onset of the 1st death: placebo first deaths 2.5 days
Procedure: Heliomycin and its analogues were tested for in vivo antifungal activity in a model infected with Candida albicans, lethal in mice. The pathogenic agent Candida albicans (IHEM 8060 strain) was inoculated by intravenous route (i.v.) at a dose of 2.5×10^6 CFU/mouse. the peptides were administered by i.v. route in 4 injections 6 h, 24 h, 48 h and 72 h after infection. Assessment criteria for activity were evaluation of survival and morbidity at 7 days. The morbidity scores, which take into account general state of health (condition of fur, mobility, hydration) were determined for each mouse with values ranging from 0 to 5 and defined below: 0=dead, 1=moribund, 2=very ill, 3=ill, 4=slightly ill, 5=healthy. The sum of the individual scores was calculated for each group, a score of 50 for a group of 10 mice meaning that all the mice were healthy.
Following a standard protocol, groups of 10 Swiss OF1 male mice weighing 12 g were infected via i.v. route with a dose of 2.5×10^6 CFU/mouse. Heliomycin and Ard1 were administered by i.v. route in 4 injections, 6 h, 24 h, 48 h and 72 h after infection. For each peptide, 2 doses were tested: 10 mg/kg and 30 mg/kg. A placebo group was injected with peptide solvent, 0.9% sodium chloride.
In this experiment, inoculation of the mice with 2.5.10^6 CFU/mouse was 50% lethal at day 5 in the group which received placebo treatment. The first deaths occurred on post-infection day 2.5 and median mortality occurred on post-infection day 5. On day 7, 5 mice were alive and the morbidity score 15/50.
In this experiment, inoculation of Swiss OF1 mice weighing 15 g with 3.10^6 CFU of Candida albicans induces 50% mortality on day 4 after infection in the group treated with the placebo. The first deaths occur 2.5 days after infection, and 100% of the mice were dead on day 5.5.
In this experiment, inoculation of the mice with 2.5.10^6 CFU/mouse was 50% lethal at day 5 and 100% at day 8 for mice in the placebo group. The first death occurred 3 days after infection. The morbidity score fell rapidly below 30/50 (25/50 at day 2.5).
The pEM35 peptide was administered at doses of 10 and 30 mg/kg/injection with 3 daily doses for 4 days (1 h, 5 h and 10 h post-infection on day 0; at 8 h, 14 h and 20 h on days 1, 2 and 3), i.e., daily doses totalling 30 and 90 mg/kg.

A. flavus = format: cell-based
Procedure: (§1) The antifungal activity was detected by a growth inhibition test in a liquid medium.
(§2) The filamentous fungi (A. fumigatus, A. flavus and A. terreus, donated by Dr. H. Koenig, Hôpital Civil, Strasbourg; and S. prolificans and F. solani donated by Drs. J. Meis and J. Mouton, University hospital, Microbioolgy Department, Nijmegen, Netherlands) were seeded on Malt-Agar slant gelose (Biomerieux) and incubated 7 days at 37° C.
(§3) The spores were then collected with 10 ml YPG medium containing 0.05% Tween 20 and filtered through a gauze. The spores were centrifuged 10 min at 1700 rpm, the residue was collected in YPG (1 g Yeast extract, 1 g Peptone, 3 g Glucose per 1 l).
(§4) The suspension was counted with a Coverslide and adjusted to 10^4 spores/ml.
(§5) 100 μl of peptide dilutions (concentration of 50 with 0.097 μg/ml peptide) were deposited in microtitration plates. 100 μl with 10^4 spores/ml of filamentous fungi, i.e. 1000 spores, were then added.
(§6) The test plates were incubated 48 h at 37° C.
(§7) Determination of minimum inhibiting concentrations (MIC) was made by observing well cover rate. The MIC score was set at 50% well covering.

C. tropicalis = format: cell-based
Procedure: (§8) Candida yeasts (C. albicans, C. glabrata, C. dubliensis, C. tropicalis, C. kefyr, C. krusei and C. parapsilosis—donated by Dr. H. Koenig, Hôpital Civil, Strasbourg), fluconazole-resistant C. albicans (n^o245962, n^o2332, n^o246335 and n^o3552, donated by Drs. J.Meis and J. Mouton, University Hospital, Microbiology Department, Nijmegen, Netherlands), and Cryptoccocus neoformans (donated by Dr. H. Koenig, Hôpital Civil, Strasbourg) were seeded on Sabouraud-Cloramphenicol Agar slant gelose (Biomerieux) and left to incubate for 24 h at 30° C. (Candida sp.) and for 72 h at 37° C. (Cryptoccocus neoformans).
(§9) Some yeast colonies were placed in suspension in liquid Sabouraud medium (Biomerieux) to obtain a final concentration of 0.1 OD at 600 nm corresponding to 2.5.10^6 yeasts/ml.
(§10) The yeast suspension was adjusted to 5.10^3 yeast/ml in Sabouraud medium.
(§11) 100 μl of peptide dilutions (concentration of 50 with 0.097 μg/ml peptide) were deposited in microtitration plates. After adding […] of yeast suspension with 5.10^3 yeast/ml i.e. 500 yeasts, the test plates were incubated 24 h at 30° C. (Candida) under slow shaking or 72 h at 37° C. (Cryptoccocus).
(§12) Determination of minimal inhibiting concentrations (MIC) was made by measuring absorbency at 600 nm using a spectrophotometer-microtitration plate reader. The MIC score was set at a growth inhibition rate of 50%.

C. krusei = format: cell-based
Procedure: as §8, §9, §10, §11, §12

C. kefyr = format: cell-based
Procedure: as §8, §9, §10, §11, §12

Cryptoccocus neoformans = format: cell-based; conditions: 72 h
Procedure: as §8, §9, §10, §11, §12

A. terreus = format: cell-based
Procedure: as §1, §2, §3, §4, §5, §6, §7

## DKLIGSCVWGAVNYTSNCNAECKRRGYKGGHCGSFANVNCWCQT (disulfide 7-32, 18-40, 22-42 (inferred)) [pEM31]
Candida albicans
  Activity C.a. (relative activity in relation to Ard1): 2
[1]; FIGS. 4-5, 10 mg/kg
  activity compared with Ard1: more active than Ard1
  morbidity score maintained for 5 days: higher than 40/50
  mice alive on day 7 (out of 10): 8 mice
  time of onset of the 1st death: 5.5 days
[1]; FIGS. 6-7
  effect on mouse survival relative to placebo treatment: does not significantly increase mouse survival
[1]; FIGS. 6-7, dose 5 mg/kg
  effectiveness in the candidiasis infected model: not effective
A. flavus
  MIC: >25 µg/mL
C. tropicalis
  MIC: 6.25 µg/mL
C. krusei
  MIC: 3.125 µg/mL
C. kefyr
  MIC: >25 µg/mL
Cryptoccocus neoformans
  MIC: 12.5 µg/mL

## DKLIGSCVWGAVNYTSNCNAECKRRGYKGGHCGSFLNVNCWCET (disulfide 7-32, 18-40, 22-42 (inferred)) [pEM35]
Candida albicans
  Activity C.a. (relative activity in relation to Ard1): 4
[1]; FIG. 8, 30 mg/kg/day (10 mg/kg/injection, 3 daily, 4 days), placebo 100% lethal day 8
  survival rate on post-infection day 8: 80%
[1]; FIG. 8, 90 mg/kg/day (30 mg/kg/injection, 3 daily, 4 days)
  survival rate on post-infection day 8: 90%
[1]; FIG. 8, 30 and 90 mg/kg/day
  morbidity score on day 8: 30/50
  morbidity score until day 7: above 40/50
[1]; FIGS. 4-5, 10 mg/kg
  activity compared with Ard1: more active than Ard1
  mice alive on day 7 (out of 10): 9 mice
  time of onset of the 1st death: 7 days
[1]; FIGS. 6-7
  morbidity score up to post-infection day 5: 28/50
  median mortality, post-infection day: 6 days
  delay of onset of the 1st death: 1.5 days
A. flavus
  MIC: 3.125 µg/mL
A. terreus
  MIC: 6.25 µg/mL
C. tropicalis
  MIC: 1.56 µg/mL
C. krusei
  MIC: 1.56 µg/mL
C. kefyr
  MIC: >25 µg/mL
Cryptoccocus neoformans
  MIC: 6.25 µg/mL

## DKLIGSCVWGAVNYTSNCNAECKRRGYKGGHCGSFLNVNCWCQT (disulfide 7-32, 18-40, 22-42 (inferred)) [pEM46]
Candida albicans
  Activity C.a. (relative activity in relation to Ard1): 4-8
[1]; FIGS. 6-7
  effect on mouse survival relative to placebo treatment: does not significantly increase mouse survival
A. terreus
  MIC: 6.25 µg/mL
C. tropicalis
  MIC: 3.125 µg/mL
C. krusei
  MIC: 1.56 µg/mL
C. kefyr
  MIC: >25 µg/mL
Cryptoccocus neoformans
  MIC: 6.25 µg/mL

## DKLIGSCVWGAVNYTSNCRAECKRRGYKGGHCGSFANVNCWCET (disulfide 7-32, 18-40, 22-42 (inferred)) [pEM51]
Candida albicans
  Activity C.a. (relative activity in relation to Ard1): 2-4
[1]; FIGS. 6-7
  morbidity score up to post-infection day 5: 11/50
  median mortality, post-infection day: 5 days
  delay of onset of the 1st death: 1.5 days
A. flavus
  MIC: 6.25 µg/mL
A. terreus
  MIC: 3.125 µg/mL
C. tropicalis
  MIC: 3.125 µg/mL
C. krusei
  MIC: 1.56 µg/mL
C. kefyr
  MIC: >25 µg/mL
Cryptoccocus neoformans
  MIC: 1.56 µg/mL
